Reference: patent publication US11298363B2, “Triazolobenzazepines as vasopressin V1a receptor antagonists” (RICHTER GEDEON NYRT., priority 2017, dated 2022)
Structures can show the parent of a compound that is named as a salt.

Key:
[1] = molecular target: T1, human vasopressin V1a receptor (Homo sapiens, UniProt P37288); test: Human vasopressin V1a receptor binding assay; settings: 1321N1 cell membranes, [3H]vasopressin; read-out: Ki (nM) on hV1a cell line
Protocol: Human Vasopressin V1a Receptor Binding Assay
Cells were suspended in preparative buffer (50 mM Tris, 1 mM EDTA, 0.1 mM PMSF) and homogenized with glass homogenizing potter. To separate the raw membrane fraction two consecutive centrifugation procedures (40,000 g for 20 minutes at 4° C.) were executed, then the membrane was taken into the preparatory buffer during a final washing step, it was divided into aliquots which were stored at −80° C. until the time of measurement.
To determine the final affinity value, the results of at least two independent experiments were taken into account.
Non-specific binding values were determined in the presence of unlabeled 1.2×10^−6 M (Arg^8)-vasopressin. Samples were incubated in a total volume of 0.33 ml for 60 minutes at 27° C. Membrane-bound and free ligands were separated by filtration through a 0.5% polyethyleneimine-impregnated UniFilter® GF/B™. After drying the filter plates, 40 μl Microscint-20 (Packard) scintillation cocktail was added to the samples. Finally, radioactivity was measured using MicroBeta^2 Microplate Counter (Perkin Elmer).
During fitting, the asymptotes are not fixed. The K values (inhibition constant) are given with Cheng-Prusoff equation Ki=IC50/[1+(L/KD)] wherein [L] is the radioligand concentration used in the experiment and [KD] is the affinity of the radioactively labelled ligand for the given receptor. The KD is determined beforehand using the Scatchard curve.

[2] = molecular target: T1, human vasopressin V1a receptor; test: Functional assay on human vasopressin V1a receptor expressing cell line (intracellular Ca2+ fluorescence); format: cell-based; settings: 1321N1 cells, (Arg8)-vasopressin at EC80; read-out: IC50 (nM) on hV1a cell line
Protocol: Functional Assay to Test Compounds on Human Vasopressin V1a Receptor Expressing Cell Line
The ordinary secondary messenger pathway of the measured GPCR receptor was used, the endogenous Gq-associated system.
Using 30,000 cells/plate, compounds were measured on 96-well plates. The buffer composition of the measurements was the following (expressed in mM): 140 NaCl, 5 KCl, 2 CaCl2), 2 MgCl2, 10 glucose, 10 HEPES (4-(2-hydroxyethyl)-1-piperazine-ethanesulfonic acid), 2 probenecid, pH=7.4. FLIPR Calcium 5 kit (Molecular Devices) was used as fluorescent dye, the medium was not removed prior to filling with the dye and the cells were not washed out either before or after. The incubation was performed at room temperature, the final concentration of DMSO was 1%. The materials to be measured were administered in 15 to 20 minutes pretreatment, at least two parallels of each compound in each concentration was measured.
Fluorescence signal was used to determine the intracellular Ca^2+ level, the reader was FlexStation II96. […] The fluorescence signal was logged in every 1.4 seconds for 1 minute. The reference compounds used were the following: (Arg^8)-vasopressin as agonist at concentration of EC80, determined for each plate, and relcovaptan as antagonist at 1 μM. The % of inhibition at each concentration and the IC50 value of the compounds were determined where a concentration line was also measured.
The total AVP concentration-response curve was recorded on each plate. The effect of compounds measured was expressed by percentage of relative inhibition compared to control response. […] The average IC50 values were calculated from at least three independent measurements in all cases.

T1 sequence (P37288 whole entry): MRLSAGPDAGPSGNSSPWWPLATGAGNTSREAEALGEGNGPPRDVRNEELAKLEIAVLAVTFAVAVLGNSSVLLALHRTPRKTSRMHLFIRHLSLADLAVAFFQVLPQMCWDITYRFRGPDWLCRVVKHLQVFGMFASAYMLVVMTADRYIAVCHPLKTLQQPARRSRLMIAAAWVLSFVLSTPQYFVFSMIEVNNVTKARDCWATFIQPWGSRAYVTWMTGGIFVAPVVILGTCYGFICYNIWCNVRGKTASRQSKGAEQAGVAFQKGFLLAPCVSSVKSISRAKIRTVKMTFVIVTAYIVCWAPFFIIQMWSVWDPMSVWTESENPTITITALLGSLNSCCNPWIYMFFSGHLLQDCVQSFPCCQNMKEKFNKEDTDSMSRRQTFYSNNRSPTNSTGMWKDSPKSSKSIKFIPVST

Structure (SMILES)	Ki [1] [nM]	IC50 [2] [nM]
NC1Cc2cc(C(F)(F)F)ccc2-n2c(nnc2[C@H]2CC[C@H](Oc3ccccn3)CC2)C1 (stereo partly drawn) [Example 34, 1-[trans-4-(pyridin-2-yloxy)cyclohexyl]-8-(trifluoromethyl)-5,6-dihydro-4H-[1,2,4]triazolo[4,3-a][1]benzazepine-5-amine hydrochloride]	52	700
CN(C)C1Cc2cc(C(F)(F)F)ccc2-n2c(nnc2[C@H]2CC[C@H](Oc3ccccn3)CC2)C1 (stereo partly drawn) [Example 35, N,N-dimethyl-1-[trans-4-(pyridin-2-yloxy)cyclohexyl]-8-(trifluoromethyl)-5,6-dihydro-4H-[1,2,4]triazolo[4,3-a][1]benzazepine-5-amine]	9.7	160
CC(C)NC1Cc2cc(C(F)(F)F)ccc2-n2c(nnc2[C@H]2CC[C@H](Oc3ccccn3)CC2)C1 (stereo partly drawn) [Example 36, N-(propan-2-yl)-1-[trans-4-(pyridin-2-yloxy)cyclohexyl]-8-(trifluoromethyl)-5,6-dihydro-4H-[1,2,4]triazolo[4,3-a][1]benzazepine-5-amine]	36	610
Cc1ccc2c(c1)CC(N)Cc1nnc([C@H]3CC[C@H](Oc4ccccn4)CC3)n1-2 (stereo partly drawn) [Example 37, 8-methyl-1-[trans-4-(pyridin-2-yloxy)cyclohexyl]-5,6-dihydro-4H-[1,2,4]triazolo[4,3-a][1]benzazepine-5-amine]	7	100
Cc1ccc2c(c1)CC(NC(C)C)Cc1nnc([C@H]3CC[C@H](Oc4ccccn4)CC3)n1-2 (stereo partly drawn) [Example 38, 8-methyl-N-(propan-2yl)-1-[trans-4-(pyridin-2-yloxy)cyclohexyl]-5,6-dihydro-4H-[1,2,4]triazolo[4,3-a][1]benzazepine-5-amine]	2	30
CC(C)NC1Cc2cc(Br)ccc2-n2c(nnc2[C@H]2CC[C@H](Oc3ccccn3)CC2)C1 (stereo partly drawn) [Example 40, 8-bromo-N-(propan-2-yl)-1-[trans-4-(pyridin-2-yloxy)cyclohexyl]-5,6-dihydro-4H-[1,2,4]triazolo[4,3-a][1]benzazepine-5-amine]	0.9	8.4
NC1Cc2cc(Cl)ccc2-n2c(nnc2[C@H]2CC[C@H](C(F)(F)F)CC2)C1 (stereo partly shown) [Example 43]	88	210
NC1Cc2cc(Br)ccc2-n2c(nnc2[C@H]2CC[C@H](C(F)(F)F)CC2)C1 (stereo partly drawn) [Example 45, 8-bromo-1-[trans-4-(trifluoromethyl)cyclohexyl]-5,6-dihydro-4H-[1,2,4]triazolo[4,3-a][1]benzazepine-5-amine]	38	870
CC(C)NC1Cc2cc(Br)ccc2-n2c(nnc2[C@H]2CC[C@H](C(F)(F)F)CC2)C1 (stereo partly drawn) [Example 46, 8-bromo-N-(propan-2-yl)-1-[trans-4-(trifluoromethyl)cyclohexyl]-5,6-dihydro-4H-[1,2,4]triazolo[4,3-a][1]benzazepine-5-amine]	23	410
O=C1Cc2cc(C(F)(F)F)ccc2-n2c(nnc2[C@H]2CC[C@H](Oc3ccccn3)CC2)C1 [Example 48, 1-[trans-4-(pyridin-2-yloxy)cyclohexyl]-8-(trifluoromethyl)-4H-[1,2,4]triazolo[4,3-a][1]benzazepin-5(6H)-one]	18	340
OC1Cc2cc(C(F)(F)F)ccc2-n2c(nnc2[C@H]2CC[C@H](Oc3ccccn3)CC2)C1 (stereo partly drawn) [Example 49, 1-[trans-4-(pyridin-2-yloxy)cyclohexyl]-8-(trifluoromethyl)-5,6-dihydro-4H-[1,2,4]triazolo[4,3-a][1]benzazepin-5-ol]	7.5	140
FC(F)(F)c1ccc2c(c1)CC(OCC1CC1)Cc1nnc([C@H]3CC[C@H](Oc4ccccn4)CC3)n1-2 (stereo partly drawn) [Example 51, 5-(cyclopropylmethoxy)-1-[trans-4-(pyridin-2-yloxy)cyclohexyl]-8-(trifluoromethyl)-5,6-dihydro-4H-[1,2,4]triazolo[4,3-a][1]benzazepine]	7.6	55
CC(C)(C)[Si](C)(C)OC1Cc2cc(Cl)ccc2-n2c(nnc2[C@H]2CC[C@H](Oc3ccccn3)CC2)C1 (stereo partly drawn) [Example 52, 5-{[tert-butyl(dimethyl)silyl]oxy}-8-chloro-1-[trans-4-(pyridin-2-yloxy)cyclohexyl]-5,6-dihydro-4H-[1,2,4]triazolo[4,3-a][1]benzazepine]	11	60
O=C1Cc2cc(Br)ccc2-n2c(nnc2[C@H]2CC[C@H](Oc3ccccn3)CC2)C1 [Example 64]	0.5	1.1
CN(C)[C@H]1Cc2cc(Cl)ccc2-n2c(nnc2[C@H]2CC[C@H](Oc3ccccn3)CC2)C1 [Example 67]	0.6	2.3
Clc1ccc2c(c1)CC1(Cc3nnc([C@H]4CC[C@H](CN5CCCCC5)CC4)n3-2)OCCO1 [Example 69, 8′-chloro-1′-[trans-4-(piperidin-1-ylmethyl)cyclohexyl]-4′H,6′H-spiro[1,3-dioxolane-2,5′-[1,2,4]triazolo[4,3-a][1]benzazepine]]	10	139

Continued by falling Ki [1], values first:

Ki [1] [nM]	IC50 [2] [nM]	Structure (SMILES)
111	480	CC(C)(C)OC(=O)NC1Cc2cc(C(F)(F)F)ccc2-n2c(nnc2[C@H]2CC[C@H](Oc3ccccn3)CC2)C1 (stereo partly drawn) [Example 33, Tert-butyl {1-[trans-4-(pyridin-2-yloxy)cyclohexyl]-8-(trifluoromethyl)-5,6-dihydro-4H-[1,2,4]triazolo[4,3-a][1]benzazepin-5-yl}carbamate]
26	480	CC(C)NC1Cc2cc(Cl)ccc2-n2c(nnc2[C@H]2CC[C@H](C(F)(F)F)CC2)C1 (stereo partly drawn) [Example 44, 8-chloro-N-(propan-2-yl)-1-[trans-4-(trifluoromethyl)cyclohexyl]-5,6-dihydro-4H-[1,2,4]triazolo[4,3-a][1]benzazepine-5-amine]
9.4	33	CC(=O)N[C@H]1Cc2cc(Cl)ccc2-n2c(nnc2[C@H]2CC[C@H](Oc3ccccn3)CC2)C1 [Example 68, (5S)—N-{8-chloro-1[trans-4-(pyridin-2-yloxy)cyclohexyl]-5,6-dihydro-4H-[1,2,4]triazolo[4,3-a][1]benzazepin-5-yl}acetamide]
2.7	20	COC1Cc2cc(C(F)(F)F)ccc2-n2c(nnc2[C@H]2CC[C@H](Oc3ccccn3)CC2)C1 (stereo partly drawn) [Example 50, 5-methoxy-1-[trans-4-(pyridin-2-yloxy)cyclohexyl]-8-(trifluoromethyl)-5,6-dihydro-4H-[1,2,4]triazolo[4,3-a][1]benzazepine]
1.4	8.3	NC1Cc2cc(Br)ccc2-n2c(nnc2[C@H]2CC[C@H](Oc3ccccn3)CC2)C1 (stereo partly drawn) [Example 39, 8-bromo-1-[trans-4-(pyridin-2-yloxy)cyclohexyl]-5,6-dihydro-4H-[1,2,4]triazolo[4,3-a][1]benzazepine-5-amine]
0.8	2.5	Clc1ccc2c(c1)CC(OCC1CC1)Cc1nnc([C@H]3CC[C@H](Oc4ccccn4)CC3)n1-2 (stereo partly drawn) [Example 59, 5-(Cyclopropylmethoxy)-8-chloro-1-[trans-4-(pyridin-2-yloxy)cyclohexyl]-5,6-dihydro-4H-[1,2,4]triazolo[4,3-a][1]benzazepine]
0.5	1	OC1Cc2cc(Br)ccc2-n2c(nnc2[C@H]2CC[C@H](Oc3ccccn3)CC2)C1 (stereo partly drawn) [Example 65, 8-bromo-1-[trans-4-(pyridin-2-yloxy)cyclohexyl]-5,6-dihydro-4H-[1,2,4]triazolo[4,3-a][1]benzazepin-5-ol]
